Reference: patent US4772596A, “Dihydropyridine derivatives, their preparation and their use” (Sankyo Company Limited, priority 1986, dated 1988)

How the values were obtained:
[1] = tested on: spontaneously hypertensive rats of the SHR strain; assay: Antihypertensive activity in conscious spontaneously hypertensive rats (blood pressure and heart rate); conditions: po; for 12 Hour Area (integrated value of the area above the graph of blood pressure change against time): 12 hours after administration
Protocol: The test animals were spontaneously hypertensive rats of the SHR strain, each aged about 15 weeks. The antihypertensive activities of the test compounds were determined in these rats as follows.
Each animal was anaesthetized with sodium pentobarbital (50 mg/kg, intraperitoneally) and a polyethylene cannula was inserted into the abdominal aorta by the method of Weeks and Jones [J. R. Weeks and J. A. Jones, Proc. Soc. Exptl. […] The other end of the cannula left the animal's body at, and was fixed to, the neck. About 1 week after this surgery, when the animal had completely recovered from surgical stress, the free end of the aortic cannula was connected to a sphygmomanmeter to measure blood pressure and heart rate of the animal directly in the conscious, aparalytic and unrestrained state.
At this time, a test compound suspended in a 0.3% w/v aqueous carboxymethylcellulose solution was administered orally in the dose shown in the following Table 8.
Tmax : the time in hours after administration of the compound under test before the maximum change in blood pressure was recorded;
To 0.5 max : the time in hours after administration of the compound under test which is required for the blood pressure to return to one half of its maximum value;

isolated rat aorta = assay: Calcium antagonism: contractile response of isolated rat aorta to calcium chloride; assay type: cell-based; conditions: test compound 5 nM
Protocol: An isolated rat aorta was suspended in a calcium-free and high potassium Krebs-Henseleit solution maintained at a temperature of 37° C. The contractile response of the aorta to calcium chloride in concentrations ranging from 10^-5 to 10^-2 M was recorded by means of an isometric transducer. The dose-response curve of the aorta was obtained before and after addition of a test compound at a concentration of 5 nM. Addition of the test compound shifted the dose-response curve to the right, the magnitude of the shift depending upon the potency of the Ca^++ -blocking activity.

[2] = SHR, compared with nifedipine and nicardipine

Structure (SMILES)	T0.5 max (time after administration for the blood pressure to return to one half of its maximum value) ([1]; 1 mg/kg, SHR)	Tmax (time after administration before the maximum change in blood pressure) ([1]; 1 mg/kg, SHR)	12 Hour Area (integrated value of the area above the graph of blood pressure change against time) ([1]; 1 mg/kg, SHR)	12 Hour Area (integrated value of the area above the graph of blood pressure change against time) ([1]; 3 mg/kg, SHR)	also measured
CC1=C(C(=O)OC(C)C)C(c2cccc([N+](=O)[O-])c2)C(C(=O)OC2CN(C(c3ccccc3)c3ccccc3)C2)=C(N)N1 (stereo not drawn) [Compound 1-11, 3-(1-Benzhydryl-3-azetidinyl) 5-isopropyl 2-amino-6-methyl-4-(3-nitrophenyl)-1,4-dihydropyridine-3,5-dicarboxylate]	10.4 h	6.0 h	-184	-334	Tmax (time after administration before the maximum change in blood pressure) ([1]; 3 mg/kg, SHR): 5.0 h; duration of the antihypertensive activity [1, 2]: much longer than that produced by nifedipine and nicardipine; time of onset of activity / speed of lowering blood pressure [1, 2]: lowered blood pressure much more slowly than did nifedipine or nicardipine; heart rate ([1]; rat, in vivo): (but not Compound 1-11) increased heart rate; duration of activity (calcium antagonism) (isolated rat aorta; isolated rat aorta): excellent duration of activity; rightwards shift of the calcium chloride dose-response curve (Ca++-blocking activity) (isolated rat aorta; calcium-free high potassium Krebs-Henseleit solution, 37° C): comparable with that of nifedipine
CC1=C(C(=O)OC(C)C)C(c2cccc(Cl)c2Cl)C(C(=O)OC2CN(C(c3ccccc3)c3ccccc3)C2)=C(N)N1 (stereo not drawn) [Compound 1-59, 3-(1-Benzhydryl-3-azetidinyl) 5-isopropyl 2-amino-4-(2,3-dichlorophenyl)-6-methyl-1,4-dihydropyridine-3,5-dicarboxylate]	12.0 h	6.0 h	-203	–	–
CC1=C(C(=O)OC(C)C)C(c2cccc([N+](=O)[O-])c2)C(C(=O)OC2CN(C(c3ccc(F)cc3)c3ccc(F)cc3)C2)=C(N)N1 (stereo not drawn) [Compound 1-68, 3-[1-(4,4'-Difluorobenzhydryl)-3-azetidinyl]5-isopropyl 2-amino-6-methyl-4-(3-nitrophenyl)-1,4-dihydropyridine-3,5-dicarboxylate]	11.8 h	7.0 h	-218	–	–
CC1=C(C(=O)OC(C)C)C(c2cccc([N+](=O)[O-])c2)C(C(=O)OC2CCN(C(c3ccccc3)c3ccccc3)C2)=C(N)N1 (stereo not drawn) [Compound 2-8, 3-(1-Benzhydryl-3-pyrrolidinyl) 5-isopropyl 2-amino-6-methyl-4-(3-nitrophenyl)-1,4-dihydropyridine-3,5-dicarboxylate]	11.2 h	6.0 h	-172	–	–
CC1=C(C(=O)OC(C)C)C(c2cccc([N+](=O)[O-])c2)C(C(=O)OC2CCCN(C(c3ccccc3)c3ccccc3)C2)=C(N)N1 (stereo not drawn) [Compound 3-8, 3-(1-Benzhydryl-3-piperidyl) 5-isopropyl 2-amino-6-methyl-4-(3-nitrophenyl)-1,4-dihydropyridine-3,5-dicarboxylate]	11.4 h	7.0 h	-141	–	–
COC(=O)C1=C(C)NC(C)=C(C(=O)OCCN(C)Cc2ccccc2)C1c1cccc([N+](=O)[O-])c1 (stereo not drawn) [nicardipine, reference compound]	–	–	–	-175	T0.5 max (time after administration for the blood pressure to return to one half of its maximum value) ([1]; 3 mg/kg, SHR): 5.3 h; Tmax (time after administration before the maximum change in blood pressure) ([1]; 3 mg/kg, SHR): 0.5 h
COC(=O)C1=C(C)NC(C)=C(C(=O)OC)C1c1ccccc1[N+](=O)[O-] [nifedipine, reference compound]	–	–	–	-237	heart rate ([1]; SHR): increased heart rate
